Legend:
[1] = system: myelin oligodendrocyte glycoprotein (MOG) induced experimental autoimmune encephalomyelitis (EAE); assay: MOG-induced experimental autoimmune encephalomyelitis (EAE) in DA rats, clinical course; format: in vivo
Description: Using the example of experimental autoimmune encephalomyelitis (EAE) which is recognized as animal model of human MS, the effectiveness of treosulfan was first of all examined. […] In the first trials, treosulfan was applied on the day of immunisation, in another on day 14 following immunisation.
Firstly, several trials for the determination of the dosage of treosulfan were carried out in DA rats, a strain of rat particularly suitable for these trials (Dark Agouti strain) with myelin oligodendrocyte glycoprotein (MOG) induced experimental autoimmune encephalomyelitis (EAE). These rats represent an excellent model of multiple sclerosis (MS) since the clinical development and the lesion morphology (inflammation, demyelination, loss of axons and nerve cells) of MS can be reproduced.
DA rats (10 animals per group) were treated either with a single dose of treosulfan (0.5 g/kg bodyweight) on the day of immunisation (p.i.) or with a three times repeated treosulfan application (0.5 g/kg bodyweight per application) at intervals of 1 day. PBS (phosphate buffered salt solution) was administered as control. In a further experiment, treosulfan (single dose: 0.5 g/kg bodyweight) was administered 2 weeks after immunisation. The total number of rats was 30 animals. The animals were observed clinically for the period of 40 days after initiation of the experiment and regularly examined neurologically.
FIGS. 3 and/or 3a are different representations of the experiment in which treosulfan was administered on day 14 following immunisation.

[2] = Tolerance and haematological characterisation in MOG-EAE rats; format: in vivo, DA rats
Text: To analyse the haematological status, blood was taken from the rats on day 0, day 5, day 14, and day 53 following immunisation and a determination of haemoglobin (Hb), reticulocytes, leukocytes, thrombocytes and crythrocytes carried out.
The tolerance of treosulfan is illustration in FIGS. 5–15.

interleukin 12 (IL-12) = assay: Quantitative PCR for IL-12 in MOG-EAE rats; format: in vivo, DA rats; details: treatment on day 0
Text: (§1) In a second experiment, five rats each were characterised immunologically on day 12 and day 40 (total number of animals: n=30) following the immunisation with respect to T and B cell response (EliSpot (Autoimmun Diagnostika GmbH, D-72479 Strassberg) for IFN-secreting cells, proliferations, auto-antibody analysis). (R. Weissert et al., J. Immunol. 160 […], 681–690).
(§2) It was, moreover, observed that the interleukin 12 (IL-12) and/or interferon-β (IFN-β) values were reduced in the treosulfan group (FIG. 16, 17). (R. Weissert et al., J. Immunol. 166 (2001), 7588–7599).
FIG. 17: Quantitative PCR for IL-12 treatment with treosulfan on day 0.

interferon-β (IFN-β) = assay: Quantitative PCR for IFN in MOG-EAE rats; format: in vivo, DA rats; details: treatment on day 0
Text: as §1, §2
FIG. 16: Quantitative PCR for IFN-treatment with treosulfan on day 0.

secondary progressive MS = assay: Healing trial on patients with secondary progressive MS; format: in vivo
Description: In the course of a first healing trial, 5 patients suffering from secondary progressive MS (SPMS patients) were treated. They consisted of 3 men […]/62 and two women […].
As part of the therapy, treosulfan was administered in the form of a solution suitable for intravenous application (infusion). The patients were treated with a dosage of 5 g/m^2 body surface in each case at intervals of 4 weeks in the first quarter. Subsequently, a single treosulfan application (5 g/m^2 of treosulfan) took place per quarter.
In the case of two patients, an improvement of the ambulation index (S. L. Hauser et al. N. Engl. J. Med. 308 (1983) 173–178) was observed.

SMILES | effectiveness compared with the treosulfan group ([1]; same trial conditions, single i.p. treatment on the day of immunisation) | changes to the blood picture (Hb, reticulocytes, leukocytes, thrombocytes, erythrocytes) ([2]; blood taken day 0, 5, 14 and 53 following immunisation) | weight ([2]; single dose of 1 g/kg i.p., at the beginning of the treatment) | effectiveness in comparison with the untreated control group ([1]; FIGS. 1-3a) | animals still alive ([1]; day 53, untreated control group 2 out of 8) | suppression of the disease ([1]; single dose of 1 g/kg bodyweight, intraperitoneal) | disease course in contrast to untreated control group ([1]; treosulfan applied on day 14 following immunisation) | interleukin 12 (IL-12) values (interleukin 12 (IL-12)) | interferon-β (IFN-β) values (interferon-β (IFN-β)) | patients with improvement of the ambulation index (secondary progressive MS; 5 SPMS patients, 5 g/m^2 body surface i.v. infusion every 4 weeks in the first quarter, then once per quarter) | substance-related secondary effects (secondary progressive MS; 5 SPMS patients, 5 g/m^2 i.v. infusion) | disease development in MS patients (secondary progressive MS; summary statement) | tolerance (secondary progressive MS; summary statement)
O=C1c2c(O)ccc(O)c2C(=O)c2c(NCCNCCO)ccc(NCCNCCO)c21 [mitoxantrone] | no greater effectiveness |  |  |  |  |  |  |  |  |  |  |  | 
CS(=O)(=O)OC[C@H](O)[C@@H](O)COS(C)(=O)=O [treosulfan, (2S,3S)-threitol-1,4-bismethane sulphonate] |  | not documented | substantial decrease in weight | confirm first of all the effectiveness | 7 out of 8 | capable of suppressing the disease | stabilisation | reduced | reduced | two | No substance-related secondary effects were observed | clear improvement | extremely well tolerated
